Source: patent US11292971B2, “Dissolution of hexamine in non-aqueous solvent” (ECOLAB USA INC., priority 2017, dated 2022)

How the values were obtained:
[1] = Dissolution of hexamine in cinnamyl alcohol and glycerin: slurry left two days, clear supernatant analyzed for composition; type: physicochemical; details: about room temperature
Protocol: Slurries were prepared by mixing hexamine in cinnamyl alcohol or a mixture of cinnamyl alcohol and glycerin at about room temperature. The compositions were then allowed to sit undisturbed for two days and the clear supernatant decanted off and analyzed for composition. As the results below illustrate, clear stable solutions of hexamine in various ratios of glycerin and cinnamyl alcohol were obtained.

[2] = 20° C., cited from earlier work

SMILES: C1N2CN3CN1CN(C2)C3 [Hexamine, 1,3,5,7-tetraazatricyclo[3.3.1.1^3,7]decane]
- Hexamine in stable solution ([1]; cinnamyl alcohol 16, glycerin (<1% water) 76 weight %): 8 Weight %
- Hexamine in stable solution ([1]; cinnamyl alcohol 32, glycerin (<1% water) 63 weight %): 5 Weight %
- Hexamine in stable solution ([1]; cinnamyl alcohol 37, glycerin (<1% water) 55 weight %): 8 Weight %
- Hexamine in stable solution ([1]; cinnamyl alcohol 50, glycerin (<1% water) 43 weight %): 7 Weight %
- Hexamine in stable solution ([1]; cinnamyl alcohol 59, glycerin (<1% water) 34 weight %): 7 Weight %
- Hexamine in stable solution ([1]; cinnamyl alcohol 68, glycerin (<1% water) 22 weight %): 10 Weight %
- Hexamine in stable solution ([1]; cinnamyl alcohol 78, glycerin (<1% water) 11 weight %): 11 Weight %
- Hexamine in stable solution ([1]; cinnamyl alcohol 84, glycerin (<1% water) 6 weight %): 10 Weight %
- Hexamine in stable solution ([1]; cinnamyl alcohol 93, glycerin (<1% water) 0 weight %): 7 Weight %
- solubility in acetone ([2]; acetone): 0.65 g
- solubility in benzene ([2]; benzene): 0.23 g
- solubility in chloroform ([2]; chloroform): 13.4 g
- solubility in ethanol ([2]; ethanol): 2.89 g
- solubility in ether ([2]; ether): 0.06 g
- solubility in methanol ([2]; methanol): 7.25 g
- solubility in petroleum ether ([2]; petroleum ether): near zero
- solubility in xylene ([2]; xylene): 0.14 g
